Assay results: patent US5047521A, “5-fluorouracil derivatives” (Otsuka Pharmaceutical Co., Ltd., priority 1986, dated 1991)

Test system: Sarcoma-180
Experiment: Pharmacological Test I: tumor weight in ICR mice subcutaneously transplanted with Sarcoma-180, oral administration
Assay type: in vivo
Details: Mus musculus, Sarcoma-180, 240 h, once a day for 7 consecutive days, tumor weight on 10th day after transplantation, read-out: ED50 (50% tumor inhibition dose, T/C = 0.5)
Experimental: Sarcoma-180 subcultured in an ascites of ICR mice was diluted with a physiological saline solution and subcutaneously transplanted into the backs of ICR mice in an amount of 2×10^7 cells each. Twenty-four hours after the transplantation, a test compound suspended in a 5% solution of gum arabic was orally administered to each of mice once a day for 7 consecutive days.
The solid tumor was isolated from under the dorsal skin of mice on the 10th day after the transplantation to measure the weight of the tumor. There was determined the ratio (T/C) of the weight of tumor (T) cut out from the group of mice treated with the test compound to the weight of tumor (C) from the group of mice not treated therewith. The 50% tumor inhibition dose (ED50 value) in which T/C is 0.5 was determined from the dose-response curve of dosage and the ratio (T/C).

## CCC(=O)OC[C@H]1O[C@@H](n2cc(F)c(=O)[nH]c2=O)C[C@@H]1OCc1cccs1
  ED50: 2 mg/kg
